Laboratory results: patent US20210330713A1, “HUMAN HEPATOCYTES AND USES THEREOF” (ACCELERATED BIOSCIENCES CORP., priority 2014, published 2021)
“Also recorded” adds a separate entry of the source. Values belong to the compound of their own block, whether it stands above or below them.

Legend:
[1] = cited from earlier work
FGF receptor (FGFR) = molecular target: T1, FGF receptor (FGFR) (Homo sapiens, UniProt P11362); assay: FGFR inhibitor block of bFGF-induced PI3K by immunoblotting; assay type: cell-based; settings: hTS cells, bFGF 10 ng/ml
T1 construct: endogenous in cells; host or cells: hTS cells (human trophoblast stem cells)
Experimental: (§1) For immunoblotting assay, cells were harvested into RIPA lysis solution (Millipore, Billerica, Mass.) supplemented with protease and phosphatase inhibitors (Roche). After electrophoresis of 30 μg lysates on polyacrylamide gels, electroblotting onto PDVF membranes (Millipore) was performed. After blocked by 5% non-fat milk in PBS at room temperature (1 hr), target protein was detected by using primary antibody. All membranes were incubated with chemiluminescent (Millipore) and imaging was captured by the ChemiDoc XRS system (Bio-RAD). Data were analyzed by AlphaEaseFC (version 4.0.0) system. For IP assay, Cell lysates of bFGF-treated hTS cells were collected. By incubation with protein G-agarose (Millipore) for 30 min, total protein (100 μg) was treated with specific primary antibody overnight listed in Table 1. After treating with protein G-agarose beads (2 hr), sample was washed three times with RIPA lysis buffer (Millipore), following by adding with protein loading dye and boiled for 5 min. […]
(§2) For immunoblotting assay, cells were harvested into RIPA lysis solution (Millipore, Billerica, Mass.) supplemented with protease and phosphatase inhibitors (Roche). […] After blocked by 5% non-fat milk in PBS at room temperature (1 hr), target protein was detected by using primary antibody. […] Data were analyzed by AlphaEaseFC (version 4.0.0) system. […]

CYP7A1 = settings: hypercholesterolemic hamsters; cited from earlier work
hTS cells [2] = assay: Hepatocytic differentiation of hTS cells after DE stage; settings: dexamethasone 0.1 μM and oncostatin M 10 ng/ml added at 8 hr of bFGF induction, 4 days
CYP3A4 = assay: Functional cytochrome p450 assay by qPCR, CYP3A4; settings: hepatocyte-like cells, rifampicin 25 μM + itraconazole 25 μM, 24 hr
miR-124a = miR-124a expression in hTS cells by qPCR; assay type: cell-based, human; settings: bFGF induction, DE stage
Source text: U6 snRNA (RNU6B; Applied Biosystems) served as an endogenous control.

[3] = tested on: PI3K/AKT/CREB1 signaling pathway; assay: bFGF-induced PI3K/AKT/CREB1 signaling by immunoblotting; assay type: cell-based, human; settings: bFGF 10 ng/ml, 4 hr induction, hTS cells
Experimental: as §1, §2

hTS cells [4] = assay: bFGF induction of DE differentiation in hTS cells, DE-associated markers over time; assay type: cell-based, human; settings: bFGF 10 ng/ml
Experimental: For immunoblotting assay, cells were harvested into RIPA lysis solution (Millipore, Billerica, Mass.) supplemented with protease and phosphatase inhibitors (Roche). After electrophoresis of 30 μg lysates on polyacrylamide gels, electroblotting onto PDVF membranes (Millipore) was performed. After blocked by 5% non-fat milk in PBS at room temperature (1 hr), target protein was detected by using primary antibody. All membranes were incubated with chemiluminescent (Millipore) and imaging was captured by the ChemiDoc XRS system (Bio-RAD). Data were analyzed by AlphaEaseFC (version 4.0.0) system. For IP assay, Cell lysates of bFGF-treated hTS cells were collected. By incubation with protein G-agarose (Millipore) for 30 min, total protein (100 μg) was treated with specific primary antibody overnight listed in Table 1. After treating with protein G-agarose beads (2 hr), sample was washed three times with RIPA lysis buffer (Millipore), following by adding with protein loading dye and boiled for 5 min. The sample was resolved by 8% SDS-PAGE and subjected to immunoblotting analysis.
(§3) Slides with cell culture was fixed for 30 min at room temperature in 95% (v/v) ethanol, washed three times in PBS and incubated with blocking buffer PBS containing 0.1% (wt/v) Triton X-100 (Sigma) and 5% (v/v) normal donkey serum (Millipore) for 60 min. Primary and secondary antibodies were diluted in blocking buffer. Primary antibody was incubated. After incubation with specific primary antibody in PBS at 4° C. (24 hr) or room temperature (2 hr), appropriate fluorescein isothiocyante (FITC, Invitrogen) or ALEXA FLUOR® 488, 594, and 647 (Invitrogen) or Dylight 488 and 594 (BioLegend) conjugated secondary antibody was added at room temperature (1 hr). After DAPI staining of nucleus (5 min), incubation with secondary antibody (1 hr) at room temperature, and washes, sample was mounted with 50% glycerol. Images were captured by confocal laser scanning microscopy (LSM700; Zeiss Z1 or Olympus FluoView 1000 confocal laser scanning microscope) or TissueFAXS system (TissueQnostics GmbH, Vienna, Austria). Data were analyzed by TissueQuest software.
This study was approved by the Institutional Review Board on Human Subjects Research and Ethics Committees (KMUHIRB-20140071). […] For DE differentiation, cells were carried out by a conditioned a-MEM media containing 10% FBS, 2-mercaptoethanol (1 mM), nicotinamide (10 mM), and bFGF (10 ng/ml) for 8 hr, according to the empirical studies (data not shown). […] Cells were harvested at 4-7 days for assay as indicated. Determination of stage-specific differentiation of lineages depends on the hepatic cell-associated markers in liver development.
as §3, with “Briefly, slides” for “Slides”, “DYLIGHT®” for “Dylight”, “glycerol.” for “glycerol. Images were captured by confocal laser scanning microscopy (LSM700; Zeiss Z1 or Olympus FluoView 1000 confocal laser scanning microscope) or TissueFAXS system (TissueQnostics GmbH, Vienna, Austria). Data were analyzed by TissueQuest software.”

T1 sequence (P11362 22-822): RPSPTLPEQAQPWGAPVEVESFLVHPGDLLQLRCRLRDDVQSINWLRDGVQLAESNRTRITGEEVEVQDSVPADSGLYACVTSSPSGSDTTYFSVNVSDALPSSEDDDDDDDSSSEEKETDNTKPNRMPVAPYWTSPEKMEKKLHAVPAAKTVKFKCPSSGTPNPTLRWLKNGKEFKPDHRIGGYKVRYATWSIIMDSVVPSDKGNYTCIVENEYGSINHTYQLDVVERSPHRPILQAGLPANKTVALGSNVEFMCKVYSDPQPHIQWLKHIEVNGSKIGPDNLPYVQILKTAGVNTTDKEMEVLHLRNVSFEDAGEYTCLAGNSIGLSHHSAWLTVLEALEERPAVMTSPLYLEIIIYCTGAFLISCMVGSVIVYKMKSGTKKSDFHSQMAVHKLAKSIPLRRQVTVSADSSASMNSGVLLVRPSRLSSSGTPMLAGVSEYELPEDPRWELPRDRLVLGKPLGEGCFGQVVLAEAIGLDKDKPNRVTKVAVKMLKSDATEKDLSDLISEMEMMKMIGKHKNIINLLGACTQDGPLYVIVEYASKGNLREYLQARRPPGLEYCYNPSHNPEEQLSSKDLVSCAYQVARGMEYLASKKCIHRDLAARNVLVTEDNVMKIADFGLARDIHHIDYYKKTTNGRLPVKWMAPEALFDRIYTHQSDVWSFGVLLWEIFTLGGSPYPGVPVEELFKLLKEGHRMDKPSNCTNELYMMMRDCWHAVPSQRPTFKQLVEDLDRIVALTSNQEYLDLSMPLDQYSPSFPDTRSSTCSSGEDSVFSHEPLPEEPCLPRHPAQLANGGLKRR

Compound: ClC(Cl)(Cl)Cl [CCl4, carbon tetrachloride]
half-live in blood [1]: 24 h

bFGF-induced activation of PI3K (FGF receptor (FGFR)): block
Compound: COc1cc(OC)cc(-c2cc3cnc(N)nc3nc2NC(=O)NC(C)(C)C)c1 [PD166866]

Compound: CC(=O)c1c(O)cc(O)cc1O [THA]
CYP7A1 activity and mRNA expression (CYP7A1): promotes both CYP7A1 activity and mRNA expression
plasma cholesterol and triglyceride (CYP7A1): reduce both plasma cholesterol and triglyceride

Compound: C[C@@H]1C[C@H]2[C@@H]3CCC4=CC(=O)C=C[C@]4(C)[C@@]3(F)[C@@H](O)C[C@]2(C)[C@@]1(O)C(=O)CO [dexamethasone]
differentiation to hepatocyte-like cells expressing hepatic markers (hTS cells [2]): resulted in the differentiation of hepatocyte-like cells

inducer-induced CYP3A4 mRNA in response to inhibitor (CYP3A4): reduced
Compound: CCC(C)n1ncn(-c2ccc(N3CCN(c4ccc(OCC5COC(Cn6cncn6)(c6ccc(Cl)cc6Cl)O5)cc4)CC3)cc2)c1=O (stereo not shown) [itraconazole]

Compound: bFGF: basic fibroblast growth factor, used at 10 ng/ml to induce DE differentiation of hTS cells
time of peak miR-124a expression (miR-124a): 4 h
activation of the PI3K/AKT1/CREB1 signaling pathway [3]: induces activation
SOX17 levels at peak (hTS cells [4]; 2 hr, immunoblotting): 1.5 fold
intensity of Mixl1, nadir lower than the native one (hTS cells [4]; 4 hr, TissueFAX analysis): ~50%
MIXL1 levels, nadir lower than the native one (hTS cells [4]; 4 hr, immunoblotting): ~50%
DE formation (hTS cells [4]; 8 hr induction): efficiently yield DE; also recorded: rapidly differentiate hTS cells to DE stage
FOXA2 highest levels (hTS cells [4]; 8 hr, immunoblotting): 3 fold
